Kd data for 14 compounds are collected here from ChEMBL document CHEMBL3991601, “The target landscape of clinical kinase drugs” (Science, 2017).

The target in assay [1] is T1, Dual specificity mitogen-activated protein kinase kinase 3 (Homo sapiens, UniProt P46734).
T1 sequence (P46734 whole entry): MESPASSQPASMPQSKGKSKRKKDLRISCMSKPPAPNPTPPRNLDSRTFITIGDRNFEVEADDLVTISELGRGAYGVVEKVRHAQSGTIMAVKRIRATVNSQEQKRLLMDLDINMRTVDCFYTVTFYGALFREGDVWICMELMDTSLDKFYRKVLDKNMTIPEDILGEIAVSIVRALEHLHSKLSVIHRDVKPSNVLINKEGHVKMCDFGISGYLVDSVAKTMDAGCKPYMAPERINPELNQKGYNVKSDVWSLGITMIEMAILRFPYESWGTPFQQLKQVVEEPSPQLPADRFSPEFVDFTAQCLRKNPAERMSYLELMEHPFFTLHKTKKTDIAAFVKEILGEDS

Assay [2] has as its target Mitogen-activated protein kinase kinase kinase 1 (Homo sapiens, UniProt Q13233).
In assay [3] the target is Mitogen-activated protein kinase 1 (Homo sapiens, UniProt P28482).
Sequence of Mitogen-activated protein kinase 1 (P28482 whole entry): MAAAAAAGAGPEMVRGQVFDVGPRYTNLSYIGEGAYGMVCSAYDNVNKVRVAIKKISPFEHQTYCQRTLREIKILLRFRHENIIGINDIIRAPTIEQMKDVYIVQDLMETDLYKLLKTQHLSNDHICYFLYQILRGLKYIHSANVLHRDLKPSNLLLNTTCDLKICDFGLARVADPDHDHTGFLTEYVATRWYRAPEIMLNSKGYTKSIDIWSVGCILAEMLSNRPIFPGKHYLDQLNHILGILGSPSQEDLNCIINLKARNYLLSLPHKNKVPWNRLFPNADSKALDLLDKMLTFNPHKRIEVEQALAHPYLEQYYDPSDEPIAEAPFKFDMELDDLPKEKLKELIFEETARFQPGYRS
The target in assay [4] is T2, Serine/threonine-protein kinase Nek1 (Homo sapiens, UniProt Q96PY6).
T2 sequence (Q96PY6 whole entry): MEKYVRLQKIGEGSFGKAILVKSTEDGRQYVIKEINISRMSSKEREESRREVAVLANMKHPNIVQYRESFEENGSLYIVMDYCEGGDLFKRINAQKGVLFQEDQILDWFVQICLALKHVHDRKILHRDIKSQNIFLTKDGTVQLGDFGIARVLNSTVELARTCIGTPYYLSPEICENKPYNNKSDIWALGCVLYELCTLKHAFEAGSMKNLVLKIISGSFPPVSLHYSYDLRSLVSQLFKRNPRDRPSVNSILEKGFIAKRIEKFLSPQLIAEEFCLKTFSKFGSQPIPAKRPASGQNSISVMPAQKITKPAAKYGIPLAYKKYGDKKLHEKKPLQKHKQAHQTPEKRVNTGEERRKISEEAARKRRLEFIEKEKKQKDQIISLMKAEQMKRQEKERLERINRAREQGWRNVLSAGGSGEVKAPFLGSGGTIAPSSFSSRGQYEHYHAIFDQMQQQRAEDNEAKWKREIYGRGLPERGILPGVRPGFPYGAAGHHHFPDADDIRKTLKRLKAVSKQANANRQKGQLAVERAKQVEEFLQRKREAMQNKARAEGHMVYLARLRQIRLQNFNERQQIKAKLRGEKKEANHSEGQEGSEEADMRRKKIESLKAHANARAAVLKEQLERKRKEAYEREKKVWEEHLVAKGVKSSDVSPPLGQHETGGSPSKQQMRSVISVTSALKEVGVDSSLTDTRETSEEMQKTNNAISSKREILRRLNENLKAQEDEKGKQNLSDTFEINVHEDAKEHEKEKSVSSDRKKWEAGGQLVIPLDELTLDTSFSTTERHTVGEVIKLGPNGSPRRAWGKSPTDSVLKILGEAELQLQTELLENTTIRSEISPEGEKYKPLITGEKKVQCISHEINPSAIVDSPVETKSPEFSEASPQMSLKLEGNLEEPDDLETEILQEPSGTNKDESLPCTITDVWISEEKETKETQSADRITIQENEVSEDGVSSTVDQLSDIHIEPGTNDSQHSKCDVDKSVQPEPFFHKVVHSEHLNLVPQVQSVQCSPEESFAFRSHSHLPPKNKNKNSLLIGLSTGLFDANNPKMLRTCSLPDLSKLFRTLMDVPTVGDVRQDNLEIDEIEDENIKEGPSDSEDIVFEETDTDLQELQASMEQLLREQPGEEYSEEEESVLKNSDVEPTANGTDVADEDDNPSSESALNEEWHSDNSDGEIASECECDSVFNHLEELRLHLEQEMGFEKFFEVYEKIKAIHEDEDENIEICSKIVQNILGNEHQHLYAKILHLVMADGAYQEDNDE

Assay [5] deals with T3, Membrane-associated tyrosine- and threonine-specific cdc2-inhibitory kinase (Homo sapiens, UniProt Q99640).
T3 sequence (Q99640 whole entry): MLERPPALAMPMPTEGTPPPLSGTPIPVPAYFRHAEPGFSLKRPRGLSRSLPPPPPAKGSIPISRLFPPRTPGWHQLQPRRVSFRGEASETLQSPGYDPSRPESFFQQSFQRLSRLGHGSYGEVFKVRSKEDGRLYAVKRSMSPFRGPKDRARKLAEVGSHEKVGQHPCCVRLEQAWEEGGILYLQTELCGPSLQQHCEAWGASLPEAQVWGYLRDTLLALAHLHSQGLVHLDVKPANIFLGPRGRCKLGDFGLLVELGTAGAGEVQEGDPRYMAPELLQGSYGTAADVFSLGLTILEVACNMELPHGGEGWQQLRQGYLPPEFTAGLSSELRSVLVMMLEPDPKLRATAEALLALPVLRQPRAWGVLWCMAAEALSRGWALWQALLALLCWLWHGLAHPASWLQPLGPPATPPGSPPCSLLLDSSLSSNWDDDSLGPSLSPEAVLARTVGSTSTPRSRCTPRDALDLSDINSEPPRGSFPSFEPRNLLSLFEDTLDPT

The target of assay [6] is Ras-related protein Rab-6A (Homo sapiens, UniProt P20340).
Sequence of Ras-related protein Rab-6A (P20340 whole entry): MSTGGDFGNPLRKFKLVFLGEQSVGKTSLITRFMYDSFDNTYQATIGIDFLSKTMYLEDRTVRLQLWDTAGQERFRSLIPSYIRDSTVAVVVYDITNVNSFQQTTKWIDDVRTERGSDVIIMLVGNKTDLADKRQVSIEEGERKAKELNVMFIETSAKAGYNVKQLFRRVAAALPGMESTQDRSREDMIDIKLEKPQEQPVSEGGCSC
The target of assay [7] is T4, STE20-related kinase adapter protein alpha (Homo sapiens, UniProt Q7RTN6).
T4 sequence (Q7RTN6 whole entry): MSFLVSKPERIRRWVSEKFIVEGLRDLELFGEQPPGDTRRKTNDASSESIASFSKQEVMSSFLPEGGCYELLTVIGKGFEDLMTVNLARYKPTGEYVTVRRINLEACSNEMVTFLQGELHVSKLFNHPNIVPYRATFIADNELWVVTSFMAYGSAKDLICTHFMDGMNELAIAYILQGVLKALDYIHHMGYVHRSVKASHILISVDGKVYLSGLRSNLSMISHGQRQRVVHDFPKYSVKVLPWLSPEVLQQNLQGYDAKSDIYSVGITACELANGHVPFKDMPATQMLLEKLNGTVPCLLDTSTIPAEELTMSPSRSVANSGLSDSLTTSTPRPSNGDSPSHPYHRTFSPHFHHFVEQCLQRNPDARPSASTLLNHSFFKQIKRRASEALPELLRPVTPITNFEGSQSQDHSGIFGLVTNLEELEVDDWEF

Assay [8] has as its target Cyclin-dependent kinase 5 (Homo sapiens, UniProt Q00535).

Calls of active or inactive are those of the source.
Note: in the data inactive means no Kd found up to 30 µM.

Sequence of Mitogen-activated protein kinase kinase kinase 1 (Q13233 whole entry): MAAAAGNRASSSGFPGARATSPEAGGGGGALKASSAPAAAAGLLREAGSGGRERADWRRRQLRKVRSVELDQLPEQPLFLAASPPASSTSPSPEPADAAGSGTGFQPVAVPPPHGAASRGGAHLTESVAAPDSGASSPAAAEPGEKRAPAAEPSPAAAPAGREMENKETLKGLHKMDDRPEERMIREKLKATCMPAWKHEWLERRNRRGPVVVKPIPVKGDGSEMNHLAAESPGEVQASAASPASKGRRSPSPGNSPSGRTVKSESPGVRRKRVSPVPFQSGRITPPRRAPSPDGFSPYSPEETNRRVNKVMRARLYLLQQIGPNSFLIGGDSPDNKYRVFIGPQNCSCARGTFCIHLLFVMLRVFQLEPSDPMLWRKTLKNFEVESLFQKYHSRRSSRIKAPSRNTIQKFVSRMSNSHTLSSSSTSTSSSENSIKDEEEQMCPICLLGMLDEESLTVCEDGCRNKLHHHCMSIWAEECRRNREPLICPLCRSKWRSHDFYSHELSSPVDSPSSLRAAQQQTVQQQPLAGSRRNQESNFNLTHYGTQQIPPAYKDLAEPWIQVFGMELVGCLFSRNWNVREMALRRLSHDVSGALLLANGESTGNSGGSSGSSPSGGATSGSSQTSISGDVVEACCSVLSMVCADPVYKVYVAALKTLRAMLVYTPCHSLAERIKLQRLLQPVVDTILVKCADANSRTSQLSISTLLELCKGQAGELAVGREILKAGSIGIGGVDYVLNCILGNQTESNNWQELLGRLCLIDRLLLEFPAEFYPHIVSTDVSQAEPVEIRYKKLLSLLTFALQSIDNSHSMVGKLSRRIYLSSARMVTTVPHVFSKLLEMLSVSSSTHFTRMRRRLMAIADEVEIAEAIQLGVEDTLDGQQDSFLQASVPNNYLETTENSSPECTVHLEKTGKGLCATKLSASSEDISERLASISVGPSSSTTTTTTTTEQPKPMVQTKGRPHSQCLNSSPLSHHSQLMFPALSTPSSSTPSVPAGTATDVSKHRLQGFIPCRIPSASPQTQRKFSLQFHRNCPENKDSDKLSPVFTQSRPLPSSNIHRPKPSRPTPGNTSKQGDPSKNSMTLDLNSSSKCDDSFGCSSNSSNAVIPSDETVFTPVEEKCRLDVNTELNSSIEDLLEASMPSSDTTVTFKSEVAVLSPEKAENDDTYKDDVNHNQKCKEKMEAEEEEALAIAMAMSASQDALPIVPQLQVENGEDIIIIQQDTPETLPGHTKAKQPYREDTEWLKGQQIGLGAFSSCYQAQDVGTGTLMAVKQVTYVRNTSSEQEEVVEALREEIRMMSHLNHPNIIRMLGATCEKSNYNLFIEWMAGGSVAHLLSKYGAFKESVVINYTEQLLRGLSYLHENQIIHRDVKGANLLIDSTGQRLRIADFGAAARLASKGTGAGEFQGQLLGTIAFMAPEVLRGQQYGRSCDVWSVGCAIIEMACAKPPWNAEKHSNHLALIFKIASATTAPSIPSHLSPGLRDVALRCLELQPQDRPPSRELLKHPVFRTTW
Sequence of Cyclin-dependent kinase 5 (Q00535 whole entry): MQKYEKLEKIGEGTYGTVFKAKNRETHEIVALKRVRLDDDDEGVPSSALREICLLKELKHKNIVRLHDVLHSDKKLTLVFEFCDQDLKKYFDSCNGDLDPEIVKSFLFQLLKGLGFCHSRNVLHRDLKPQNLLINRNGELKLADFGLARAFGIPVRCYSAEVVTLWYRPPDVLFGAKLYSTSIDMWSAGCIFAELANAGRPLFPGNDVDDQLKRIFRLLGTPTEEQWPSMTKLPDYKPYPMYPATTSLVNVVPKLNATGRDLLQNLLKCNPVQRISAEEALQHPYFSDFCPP

For the compound `Cn1c(=O)n(-c2ccc(C(C)(C)C#N)cc2)c2c3cc(-c4cnc5ccccc5c4)ccc3ncc21` [DACTOLISIB], the Kd in assay [1], in assay [2], in assay [3], in assay [4], in assay [5] and in assay [6] was > 30 µM (inactive) throughout. Also, the Kd (commonly the free concentration of one partner at which half of the binding sites on the other are occupied at equilibrium, for simple one-to-one binding) in assay [7] was > 30 µM (inactive).

For `O=c1[nH]c([C@@H]2CCCN2)nc2c1oc1ccc(Cl)cc12`, the Kd in assay [8], in assay [1], in assay [2], in assay [3], in assay [4] and in assay [5] was > 30 µM (inactive) each time. For the same compound, the Kd in assay [7] is > 30 µM (inactive).

As to `CC[C@@](C)(Nc1ccnc(-c2c[nH]c3ncccc23)n1)C(=O)NCC(F)(F)F` [DECERNOTINIB], the Kd in assay [8], in assay [2], in assay [3], in assay [4], in assay [5] and in assay [6] was > 30 µM (inactive) in each case. Further, in assay [7], the Kd was > 30 µM (inactive).

Turning to `O=S(=O)(c1cccc2c(O)nccc12)N1CCCNCC1` [HYDROXYFASUDIL], the Kd in assay [8], in assay [1], in assay [2], in assay [4], in assay [5] and in assay [6] was > 30 µM (inactive) throughout. Besides, the Kd in assay [7] is > 30 µM (inactive).

For `CN(c1ncccc1CNc1nc(Nc2ccc3c(c2)CC(=O)N3)ncc1C(F)(F)F)S(C)(=O)=O` [PF-00562271], the Kd is > 30 µM (inactive) in assay [1]; > 30 µM (inactive) in assay [2]; 1.24 µM (active) in assay [3]; > 30 µM (inactive) in assay [4]; > 30 µM (inactive) in assay [5]; > 30 µM (inactive) in assay [6]. Besides, in assay [7], the Kd was > 30 µM (inactive).

Take `CCN1CCN(Cc2ccc(Nc3ncc(F)c(-c4cc(F)c5nc(C)n(C(C)C)c5c4)n3)nc2)CC1` [ABEMACICLIB]: the Kd in assay [1], in assay [2], in assay [3], in assay [4], in assay [5] and in assay [6] was > 30 µM (inactive) throughout. Further, the Kd in assay [7] is > 30 µM (inactive).

On to `CCN(CCCOc1ccc2c(Nc3cc(CC(=O)Nc4cccc(F)c4)n[nH]3)ncnc2c1)CCOP(=O)(O)O` [BARASERTIB], for which the Kd in assay [1] is > 30 µM (inactive); in assay [2], > 30 µM (inactive); in assay [3], > 30 µM (inactive); in assay [4] it was > 30 µM (inactive); in assay [5], > 30 µM (inactive); in assay [6] it was 0.033 µM. For the same compound, the Kd in assay [7] was > 30 µM (inactive).

In the case of `Cn1cc(-c2[nH]c3cc(NC(=O)[C@H](N)C4CCCCC4)cc4c3c2C=NNC4=O)cn1`, the Kd in assay [8], in assay [1], in assay [3], in assay [4], in assay [5] and in assay [6] was > 30 µM (inactive) in each case. Besides, the Kd in assay [7] was > 30 µM (inactive).

With `C=CCn1c(=O)c2cnc(Nc3ccc(N4CCN(C)CC4)cc3)nc2n1-c1cccc(C(C)(C)O)n1` [ADAVOSERTIB], the Kd in assay [1], in assay [2], in assay [3], in assay [4], in assay [6] and in assay [7] was > 30 µM (inactive) throughout.

As for `CCOc1ccn(-c2ccc(F)cc2)c(=O)c1C(=O)Nc1ccc(Oc2ccnc(N)c2Cl)c(F)c1` [BMS-777607], the Kd in assay [8], in assay [2], in assay [3], in assay [4], in assay [5] and in assay [6] was > 30 µM (inactive) in each case.

In the case of `O=S(=O)(c1cccc2cnccc12)N1CCCNCC1` [FASUDIL], the Kd in assay [1], in assay [2], in assay [4], in assay [5], in assay [6] and in assay [7] was > 30 µM (inactive) in each case.

Regarding `C[C@]1(O)C[C@@H](c2nc(-c3ccc4ccc(-c5ccccc5)nc4c3)c3c(N)nccn32)C1` [LINSITINIB], the Kd in assay [1], in assay [2], in assay [4], in assay [5], in assay [6] and in assay [7] was > 30 µM (inactive) throughout.

As for `CC(C)CC(=O)Nc1[nH]nc2c1CN(C(=O)C1CCN(C)CC1)C2(C)C` [PHA-793887], the equilibrium dissociation constant (Kd) is 0.135 µM (active) in assay [8]; > 30 µM (inactive) in assay [1]; > 30 µM (inactive) in assay [2]; > 30 µM (inactive) in assay [4]; > 30 µM (inactive) in assay [5]; > 30 µM (inactive) in assay [6]. Further, in assay [7], the Kd is > 30 µM (inactive).

Regarding `CC1(COc2ccc3c(c2)ncn3-c2ccc3cccc(N4CCC(N)CC4)c3n2)COC1` [CRENOLANIB], the Kd in assay [1], in assay [2], in assay [3], in assay [4], in assay [5] and in assay [6] was > 30 µM (inactive) throughout. Moreover, the Kd in assay [7] is > 30 µM (inactive).
